From US20100227827A1, “METHOD OF INCREASING TRYPTOPHAN AND NICOTINAMIDE LEVELS IN VIVO” (priority 2006, published 2010)

System: serum protein thiols
Experiment: Serum protein thiols as in vivo anti-oxidant indicator
Design: species or system human
Details: for Increase in serum protein thiols (ratio): after to before (baseline)
Excerpt: The following detailed description was designed to standardize the estimation of the in vivo level of serum protein thiols that have been used previously to estimate DNA repair capacity. When a blood sample is collected and the serum isolated, then the level of serum protein thiols is an estimate of the concentration between thiols and disulfides existing in protein structures that are in turn equilibrated to the existing oxidant environment in vivo. Thus, serum protein thiol analyses are an in vivo estimate of the antioxidant status of an individual that is in turn regulated by DNA repair.
A stock solution of the colorimetric agent 5,5′-dithio-bis-(2-nitrobenzoic acid (DTNB), was prepared using: 9.5 mg/ml solid DTNB, 0.1 M K2HPO4, and 17.5 mM EDTA. pH was adjusted to 7.5 and then diluted to desired volume. Working DTNB solution was prepared by diluting DTNB stock solution 1:50 with saline. Solutions of L-cysteine were prepared and a standard curve was constructed desirably be in the 0-100 μM range. Stock solutions were diluted as required and absorbance was measured using 96-well flat-bottom microtiter plate. 50 μL-cysteine solution with 200 μl working DTNB solution was placed per well. […]
A DTNB blank (50 μl saline+200 μl DTNB) was made. Absorbance values were made at 412 nm with a microtiter plate scanner spectrophotometer. The average of every concentration was calculated and DTNB blank was subtracted from every value. Using a plot of concentration (x-axis) vs. absorbance (y-axis) by comparison with standard cysteine solutions the cysteine concentration was determined.
A saturated ammonium sulfate solution was prepared. […] Absorbance in microtiter plate scanner set at 412 nm was measured making sure that bubbles in the well are avoided.
The average was calculated for the DTNB blank and the saline blank. […]
Then the corrected serum value was subtracted from the corrected sample value. This value was the final serum thiol value expressed as absorbance at […]. […]
Altogether this was a 20 fold dilution (4×5=20). […] Thiols were hereby measured in nmoles/0.72 ml.

O=C(O)[C@]1(O)C[C@@H](O)[C@@H](O)[C@H](O)C1 [Aqua Bimini™, quinic acid ammonium chelate]
Increase in serum protein thiols (ratio) (3000 mg/day for 36 days): 1.26
Increase in serum protein thiols (ratio) (HL 1500 mg/day for 36 days): 1.22
reduced thiols (—SH) in serum proteins (supplementation 1500 or 3000 mg/day, treatment and follow-up versus baseline): significant increase
